{
  "source": "patent US20130310326A1",
  "about": "“Histatin for Corneal Wound Healing and Ocular Surface Disease” (RAPID PATHOGEN SCREENING, INC., priority 2012, published 2013)",
  "test_system": "corneal wounds (epithelial defects in the right eye)",
  "test": "Corneal wound healing in rabbits (epithelial defect, fluorescein staining, computerized area determination)",
  "assay_type": "in vivo, New Zealand White rabbits",
  "details": "for Percentage of 1 hour post wound size: approximate, without standard deviation",
  "description": "The study disclosed herein evaluates and quantifies the wound healing effects of histatins on the ocular surface of New Zealand White rabbits.\nEpithelial defects are created in the right eye (oculus dexter, OD) of 12 New Zealand White rabbits. Due to animal regulations, bilateral wounding is not permitted. After the epithelial defects are made, the rabbits are randomized into treatment groups. Two (2) groups are treated with different cyclized histatin concentrations: 0.1 μg/ml and 10 μg/ml dissolved into an ophthalmic artificial tear preparation and delivered to the rabbits as an eye drop three times daily. Histatins known in the art, including, but not limited to, amino acid SEQ. ID. NOs. 1 through 33, which include Hst-1 (SEQ. ID. NO. 4), Hst-2 (SEQ. ID. NO. 5), Hst-3 (SEQ. ID. NO. 6), Hst-5 (SEQ. ID. NO. 30), and sortase cyclized histatin (SEQ. ID. NO. 33), may be used in these studies or in treatment protocols. […] This control group should receive the same vehicle identical to the other two groups but without histatin. An over-the-counter artificial tear preferably serves as the vehicle. The initial study included four (4) animals/group in three (3) groups, for a total of twelve rabbits.\nEach rabbit group is preferably given moxifloxicin treatment to prevent infection.\nThe corneal wounds are then evaluated daily for the corneal wound healing abilities of histatin via fluorescein staining, fluorescent slit lamp biomicrophotography and computerized area determination. Evaluators are masked to the therapeutic treatment given to the rabbits. After healing, two (2) animals from each group are euthanized, and the corneas collected for histological processing (H&E staining with subsequent evaluation by veterinary histopathologist). The decision to perform histopathologic analysis after tissue procurement is made only if there is proven difference in healing between the different treatment groups and the controls. At study termination (study preferably continues for seven days), the remaining animals are euthanized.\nThe histatin used in this study was cyclized histatin 1. The histatin 1 used was a sortase cyclized histatin with amino acid SEQ. ID. NO.",
  "data": [
    {"substance": "cyclo(DNLPETGGDSHEKRHHGYRRKFHEKHHSHREFPFYGDYGSNYLY) [cyclized histatin 1]", "values": [
      {"measurement": "corneal wound size", "setting": "0.1 μg/ml eye drop three times daily, 0 hours post wound", "result": "112.7 ± 37.8", "unit": "mm^2"},
      {"measurement": "corneal wound size", "setting": "0.1 μg/ml eye drop three times daily, 6 hours post wound", "result": "96.2 ± 13.6", "unit": "mm^2"},
      {"measurement": "corneal wound size", "setting": "0.1 μg/ml eye drop three times daily, 24 hours post wound", "result": "77.5 ± 25.0", "unit": "mm^2"},
      {"measurement": "corneal wound size", "setting": "0.1 μg/ml eye drop three times daily, 30 hours post wound", "result": "48.8 ± 8.0", "unit": "mm^2"},
      {"measurement": "corneal wound size", "setting": "0.1 μg/ml eye drop three times daily, 48 hours post wound", "result": "2.7 ± 3.1", "unit": "mm^2"},
      {"measurement": "corneal wound size", "setting": "0.1 μg/ml eye drop three times daily, 54 hours post wound", "result": "0.00 ± 0.00", "unit": "mm^2"},
      {"measurement": "corneal wound size", "setting": "0.1 μg/ml eye drop three times daily, 72 hours post wound", "result": "0.00 ± 0.00", "unit": "mm^2"},
      {"measurement": "healing activity of corneal wounds versus control", "setting": "0.1 μg/ml or 10 μg/ml versus vehicle control, rabbits", "result": "significant dose dependent accelerated healing activity"},
      {"measurement": "Percentage of 1 hour post wound size", "setting": "0.1 ug/ml, 0 hours post wound", "result": 100, "unit": "%"},
      {"measurement": "Percentage of 1 hour post wound size", "setting": "0.1 ug/ml, 6 hours post wound", "result": 85, "unit": "%"},
      {"measurement": "Percentage of 1 hour post wound size", "setting": "0.1 ug/ml, 24 hours post wound", "result": 69, "unit": "%"},
      {"measurement": "Percentage of 1 hour post wound size", "setting": "0.1 ug/ml, 30 hours post wound", "result": 43, "unit": "%"},
      {"measurement": "Percentage of 1 hour post wound size", "setting": "0.1 ug/ml, 48 hours post wound", "result": 2, "unit": "%"},
      {"measurement": "Percentage of 1 hour post wound size", "setting": "0.1 ug/ml, 54 hours post wound", "result": 0, "unit": "%"},
      {"measurement": "Percentage of 1 hour post wound size", "setting": "0.1 ug/ml, 72 hours post wound", "result": 0, "unit": "%"},
      {"measurement": "corneal wound size", "setting": "10 μg/ml eye drop three times daily, 0 hours post wound", "result": "88.4 ± 31.6", "unit": "mm^2"},
      {"measurement": "corneal wound size", "setting": "10 μg/ml eye drop three times daily, 6 hours post wound", "result": "74.0 ± 14.7", "unit": "mm^2"},
      {"measurement": "corneal wound size", "setting": "10 μg/ml eye drop three times daily, 24 hours post wound", "result": "51.4 ± 9.3", "unit": "mm^2"},
      {"measurement": "corneal wound size", "setting": "10 μg/ml eye drop three times daily, 30 hours post wound", "result": "37.7 ± 9.4", "unit": "mm^2"},
      {"measurement": "corneal wound size", "setting": "10 μg/ml eye drop three times daily, 48 hours post wound", "result": "0.00 ± 0.07", "unit": "mm^2"},
      {"measurement": "corneal wound size", "setting": "10 μg/ml eye drop three times daily, 54 hours post wound", "result": "0.00 ± 0.00", "unit": "mm^2"},
      {"measurement": "corneal wound size", "setting": "10 μg/ml eye drop three times daily, 72 hours post wound", "result": "0.00 ± 0.00", "unit": "mm^2"},
      {"measurement": "Percentage of 1 hour post wound size", "setting": "10 ug/ml, 0 hours post wound", "result": 100, "unit": "%"},
      {"measurement": "Percentage of 1 hour post wound size", "setting": "10 ug/ml, 6 hours post wound", "result": 84, "unit": "%"},
      {"measurement": "Percentage of 1 hour post wound size", "setting": "10 ug/ml, 24 hours post wound", "result": 58, "unit": "%"},
      {"measurement": "Percentage of 1 hour post wound size", "setting": "10 ug/ml, 30 hours post wound", "result": 43, "unit": "%"},
      {"measurement": "Percentage of 1 hour post wound size", "setting": "10 ug/ml, 48 hours post wound", "result": 0, "unit": "%"},
      {"measurement": "Percentage of 1 hour post wound size", "setting": "10 ug/ml, 54 hours post wound", "result": 0, "unit": "%"},
      {"measurement": "Percentage of 1 hour post wound size", "setting": "10 ug/ml, 72 hours post wound", "result": 0, "unit": "%"}
    ]}
  ]
}
